Reference: the supplement of paper PMC5908809

How the values were obtained:
[1] = system: normal NK cells expanded with K562-aAPC; assay: percent inhibition of viability; higher = more inhibition; conditions: 72 h, IL-2 2.5 ng/mL
Experimental: (§1)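 Drug sensitivity and resistance testing on K562-aAPC-expanded normal NK cells: 5 concentrations (10-fold steps over a 10,000-fold range), 72 h at 37 °C, viability by CellTiter-Glo normalised to DMSO and benzethonium chloride controls; DSS from the fitted curve.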

NK-92 (IL-2 2.5 ng/mL) [2] = assay: drug sensitivity score (DSS) (DSS units); higher = more sensitive; extreme values may be limits of the assay; conditions: 72 h
KAI3 (IL-2 2.5 ng/mL) [3] = assay: as above; conditions: 72 h
[4] = system: normal primary NK cells, pool 1 (3 donors), resting (IL-2 0 ng/mL); assay: as above; conditions: 72 h
SNK-6 (IL-2 2.5 ng/mL) [5] = assay: as above; conditions: 72 h
NKL (IL-2 2.5 ng/mL) [6] = assay: as above; conditions: 72 h
YT (IL-2 2.5 ng/mL) [7] = assay: as above; conditions: 72 h
DERL-7 (IL-2 2.5 ng/mL) [8] = assay: as above; conditions: 72 h
KHYG-1 (IL-2 2.5 ng/mL) [9] = assay: as above; conditions: 72 h
[10] = system: normal primary NK cells, pool 3 (3 donors) (IL-2 2.5 ng/mL); assay: as above; conditions: 72 h
IMC-1 (IL-2 20 ng/mL) [11] = assay: as above; conditions: 72 h
[12] = system: normal primary NK cells, pool 1 (3 donors) (IL-2 2.5 ng/mL); assay: as above; conditions: 72 h
NK-YS (IL-2 2.5 ng/mL) [13] = assay: as above; conditions: 72 h
[14] = system: normal primary NK cells, pool 2 (3 donors) (IL-2 2.5 ng/mL); assay: as above; conditions: 72 h
[15] = system: normal NK cells expanded with K562-aAPC; assay: as above; conditions: 72 h; IL-2 2.5 ng/mL
Experimental: as §1

NK-92 (IL-2 2.5 ng/mL) [16] = assay: percent inhibition of viability; higher = more inhibition; conditions: 72 h
KAI3 (IL-2 2.5 ng/mL) [17] = assay: as above; conditions: 72 h
[18] = system: normal primary NK cells, pool 1 (3 donors), resting (IL-2 0 ng/mL); assay: as above; conditions: 72 h
SNK-6 (IL-2 2.5 ng/mL) [19] = assay: as above; conditions: 72 h
NKL (IL-2 2.5 ng/mL) [20] = assay: as above; conditions: 72 h
YT (IL-2 2.5 ng/mL) [21] = assay: as above; conditions: 72 h
DERL-7 (IL-2 2.5 ng/mL) [22] = assay: as above; conditions: 72 h
KHYG-1 (IL-2 2.5 ng/mL) [23] = assay: as above; conditions: 72 h
[24] = system: normal primary NK cells, pool 3 (3 donors) (IL-2 2.5 ng/mL); assay: as above; conditions: 72 h
IMC-1 (IL-2 20 ng/mL) [25] = assay: as above; conditions: 72 h
[26] = system: normal primary NK cells, pool 1 (3 donors) (IL-2 2.5 ng/mL); assay: as above; conditions: 72 h
NK-YS (IL-2 2.5 ng/mL) [27] = assay: as above; conditions: 72 h
[28] = system: normal primary NK cells, pool 2 (3 donors) (IL-2 2.5 ng/mL); assay: as above; conditions: 72 h

Cc1c(CN2CCN(C(=O)[C@H](C)O)CC2)sc2c(N3CCOCC3)nc(-c3cnc(N)nc3)nc12 [Apitolisib] (max concentration tested 10000 nM)
percent inhibition of viability [%]
Conditions	1 nM	10 nM	100 nM	1000 nM	10000 nM
DERL-7 (IL-2 2.5 ng/mL) [22]	3.04	1.57	29.2	78.4	92.4
IMC-1 (IL-2 20 ng/mL) [25]	-4.85	-5.41	-12.6	-55.2	8.81
KAI3 (IL-2 2.5 ng/mL) [17]	0.17	-2.02	17.9	39.6	65.3
KHYG-1 (IL-2 2.5 ng/mL) [23]	-2.58	-0.95	-1.53	18	76.4
NK-92 (IL-2 2.5 ng/mL) [16]	16	7.33	22.5	45.1	57.8
NK-YS (IL-2 2.5 ng/mL) [27]	-2.41	1.63	8.5	47.2	73.8
NKL (IL-2 2.5 ng/mL) [20]	-12	-7.01	2.26	53.8	65.7
SNK-6 (IL-2 2.5 ng/mL) [19]	13.8	9.78	15.2	21.3	45.5
YT (IL-2 2.5 ng/mL) [21]	0.06	0.22	4.58	47.5	71
[1]	2.46	-0.12	17.4	39.8	85.8
[18]	-0.63	-14.4	-6.11	24.3	34.8
[24]	-10.7	-12.9	-5.47	6.17	59.6
[26]	-11.8	-13.1	4.5	40.1	75
[28]	-13.9	-6.6	0.47	22.1	66.1

Conditions	drug sensitivity score
DERL-7 (IL-2 2.5 ng/mL) [8]	18
IMC-1 (IL-2 20 ng/mL) [11]	0
KAI3 (IL-2 2.5 ng/mL) [3]	9.5
KHYG-1 (IL-2 2.5 ng/mL) [9]	7.06
NK-92 (IL-2 2.5 ng/mL) [2]	11.3
NK-YS (IL-2 2.5 ng/mL) [13]	10.2
NKL (IL-2 2.5 ng/mL) [6]	10.3
SNK-6 (IL-2 2.5 ng/mL) [5]	6.63
YT (IL-2 2.5 ng/mL) [7]	9.84
[4]	4.44
[10]	4.24
[12]	8.91
[14]	6.81
[15]	10

COc1cc(OC)c(/C=C/S(=O)(=O)Cc2ccc(OC)c(NCC(=O)O)c2)c(OC)c1 [Rigosertib] (max concentration tested 10000 nM)
percent inhibition of viability [%]
Conditions	1 nM	10 nM	100 nM	1000 nM	10000 nM
DERL-7 (IL-2 2.5 ng/mL) [22]	-3.53	3.03	91	98	97.8
IMC-1 (IL-2 20 ng/mL) [25]	-6.34	-1.76	93.8	99.2	97.8
KAI3 (IL-2 2.5 ng/mL) [17]	-3.07	5.22	55	71.9	67.5
KHYG-1 (IL-2 2.5 ng/mL) [23]	-1.12	-2.53	96.6	102	97.6
NK-92 (IL-2 2.5 ng/mL) [16]	-6.11	2.36	77.7	97.1	94.3
NK-YS (IL-2 2.5 ng/mL) [27]	-0.07	0.08	70.9	76.8	77.4
NKL (IL-2 2.5 ng/mL) [20]	-16.2	-17.7	87.4	92.2	85.4
SNK-6 (IL-2 2.5 ng/mL) [19]	-14.2	3	76.5	95.2	97.2
YT (IL-2 2.5 ng/mL) [21]	-2.58	3.15	82.9	98.4	95.7
[1]	-1.17	-9.48	-1.76	57.7	82.7
[18]	-8.83	-4.84	6.87	37.8	69.8
[24]	-13.6	-15.7	-12.6	-0.93	21.3
[26]	-11.3	-13.9	-2.02	15.3	45.3
[28]	-8.68	-8.95	-9.12	13.6	37.4

Conditions	drug sensitivity score
DERL-7 (IL-2 2.5 ng/mL) [8]	29.1
IMC-1 (IL-2 20 ng/mL) [11]	29.3
KAI3 (IL-2 2.5 ng/mL) [3]	20.3
KHYG-1 (IL-2 2.5 ng/mL) [9]	29.8
NK-92 (IL-2 2.5 ng/mL) [2]	26.8
NK-YS (IL-2 2.5 ng/mL) [13]	23
NKL (IL-2 2.5 ng/mL) [6]	26.7
SNK-6 (IL-2 2.5 ng/mL) [5]	26.8
YT (IL-2 2.5 ng/mL) [7]	27.8
[4]	8.37
[10]	0.62
[12]	4.54
[14]	3.7
[15]	11.3

O=P1(NCCCl)OCCCN1CCCl (configuration not stated) [Ifosfamide] (max concentration tested 10000 nM)
percent inhibition of viability [%]
Conditions	1 nM	10 nM	100 nM	1000 nM	10000 nM
DERL-7 (IL-2 2.5 ng/mL) [22]	-5.51	-7.54	-1.33	-3.22	-6.83
IMC-1 (IL-2 20 ng/mL) [25]	-7.45	-2.99	-8.91	-4.46	-9.5
KAI3 (IL-2 2.5 ng/mL) [17]	-7.61	-11.2	-10.2	-6.62	-0.66
KHYG-1 (IL-2 2.5 ng/mL) [23]	-2.87	-4.29	-7.54	-5.28	-6.85
NK-92 (IL-2 2.5 ng/mL) [16]	-16.3	-6.46	-7.42	-21.1	-17.7
NK-YS (IL-2 2.5 ng/mL) [27]	-1.93	-4.42	-4.13	1.8	-4.59
NKL (IL-2 2.5 ng/mL) [20]	-15.9	-21.4	-20.8	-20.4	-25.2
SNK-6 (IL-2 2.5 ng/mL) [19]	9.44	6.95	-7.05	-1.13	-14.1
YT (IL-2 2.5 ng/mL) [21]	-4.47	-6.22	-6.55	-4.33	-5.88
[1]	-2.46	-7.15	-2.89	-5.04	-1.58
[18]	-18.3	-6.52	1.44	-5.18	12.7
[24]	-13.4	-7.36	-10.1	-8.46	-1.46
[26]	-11.2	-7.35	-2.79	-2.71	1.61
[28]	-7.91	-9.22	-9.46	-8.83	-4.62

Conditions	drug sensitivity score
DERL-7 (IL-2 2.5 ng/mL) [8]	0
IMC-1 (IL-2 20 ng/mL) [11]	0
KAI3 (IL-2 2.5 ng/mL) [3]	0
KHYG-1 (IL-2 2.5 ng/mL) [9]	0
NK-92 (IL-2 2.5 ng/mL) [2]	0
NK-YS (IL-2 2.5 ng/mL) [13]	0
NKL (IL-2 2.5 ng/mL) [6]	0
SNK-6 (IL-2 2.5 ng/mL) [5]	0
YT (IL-2 2.5 ng/mL) [7]	0
[4]	0.02
[10]	0
[12]	0
[14]	0
[15]	0
